Results taken from patent publication US20260317312A1, “ISOXAZOLIDINES AS RIPK1 INHIBITORS AND USE THEREOF” (GENZYME CORPORATION, priority 2023, published 2026).

Experiments:
U937 cells = assay: Cellular assay in U937 cells to measure activity of RIPK1-inhibitors on cell death (necroptosis); format: cell-based; conditions: Homo sapiens, U-937, TNFα/zVAD.fmk induced cell death (necroptosis), overnight (18 to 24 hrs), 37° C., MTS readout
[1] = molecular target: T1, hRIPK1 (aa 1-375) fusion protein (Homo sapiens, UniProt Q13546); assay: Receptor-Interacting Protein Kinase 1 inhibition, ADP Glo assay (conversion of ATP to ADP due to autophosphorylation); format: biochemical; conditions: ATP 50 μM, 30 min preincubation, 240 min incubation, room temperature, DMSO 1%
T1 construct: hRIPK1 (aa 1-375) fusion protein
T1 sequence (Q13546 1-375): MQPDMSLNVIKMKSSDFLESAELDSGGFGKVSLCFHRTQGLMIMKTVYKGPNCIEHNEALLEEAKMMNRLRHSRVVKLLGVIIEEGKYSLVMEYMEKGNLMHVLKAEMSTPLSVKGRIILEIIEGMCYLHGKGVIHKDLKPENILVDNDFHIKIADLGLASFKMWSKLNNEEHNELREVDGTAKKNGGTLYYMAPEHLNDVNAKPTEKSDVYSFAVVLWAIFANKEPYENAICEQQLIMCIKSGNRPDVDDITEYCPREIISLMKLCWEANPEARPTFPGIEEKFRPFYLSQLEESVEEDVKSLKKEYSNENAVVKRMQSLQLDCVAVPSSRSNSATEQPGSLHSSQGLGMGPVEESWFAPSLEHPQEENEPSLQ
How it was run: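 hRIPK1 (aa 1-375) fusion protein (3.6 μg/ml final) was preincubated 30 min at rt with compound (33300-1.69 nM, 1% DMSO), then 50 μM ATP was added for 240 min at rt. ADP from autophosphorylation was measured by ADP-Glo luminescence and curves fitted by nonlinear regression.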

SMILES	IC50 [1]	IC50 (U937 cells)
CC1(C)OC(=O)N(c2ccc(F)c(O[C@H]3CC[C@@H](C(=O)N4OCC[C@H]4c4cc(F)cc(C#N)c4)CC3)c2)C1=O [Compound 81, cis-3-((S)-2-(4-(5-(5,5-dimethyl-2,4-dioxooxazolidin-3-yl)-2-fluorophenoxy)cyclohexane-1-carbonyl)isoxazolidin-3-yl)-5-fluorobenzonitrile]	0.092 µM	0.855 µM
N#Cc1cc(F)cc([C@@H]2CCON2C(=O)[C@H]2CC[C@@H](Oc3ccc(F)c(C#N)c3)CC2)c1 [Compound 82, cis-5-((4-((S)-3-(3-cyano-5-fluorophenyl)isoxazolidine-2-carbonyl)cyclohexyl)oxy)-2-fluorobenzonitrile]	0.044 µM	0.385 µM
N#Cc1cc(F)cc(OC[C@H]2CC[C@H](C(=O)N3OCC[C@H]3c3cncc(C#N)c3)CC2)c1 [Compound 83, trans-5-((S)-2-(4-((3-cyano-5-fluorophenoxy)methyl)cyclohexane-1-carbonyl)isoxazolidin-3-yl)nicotinonitrile]	0.034 µM	0.023 µM
O=C([C@H]1C[C@H](n2cnc3cc(F)ccc32)C1)N1OCC[C@H]1c1cccc(F)c1 [Compound 84, trans-(3-(5-fluoro-1H-benzo[d]imidazol-1-yl)cyclobutyl)((S)-3-(3-fluorophenyl)isoxazolidin-2-yl)methanone]	0.257 µM	0.428 µM
Cc1ccc(OC[C@H]2CC[C@H](C(=O)N3OCC[C@H]3c3cc(F)cc(C#N)c3)CC2)cc1C(N)=O [Compound 85, trans-5-((4-((S)-3-(3-cyano-5-fluorophenyl)isoxazolidine-2-carbonyl)cyclohexyl)methoxy)-2-methylbenzamide]	0.028 µM	0.027 µM
Cc1ccc(OC[C@H]2CC[C@H](C(=O)N3OCC[C@H]3c3cc(F)cc(F)c3)CC2)cc1C(N)=O [Compound 86, trans-5-((4-((S)-3-(3,5-difluorophenyl)isoxazolidine-2-carbonyl)cyclohexyl)methoxy)-2-methylbenzamide]	0.022 µM	0.01 µM
O=C([C@H]1C[C@@H](n2cnc3ccc(F)cc32)C1)N1OCC[C@H]1c1cc(F)cc(F)c1 [Compound 87, cis-((S)-3-(3,5-difluorophenyl)isoxazolidin-2-yl)(3-(6-fluoro-1H-benzo[d]imidazol-1-yl)cyclobutyl)methanone]	0.089 µM	0.551 µM
CN1CC(=O)N(c2ccc(Cl)c(OC[C@H]3CC[C@H](C(=O)N4OCC[C@H]4c4cncc(C#N)c4)CC3)c2)C1=O [Compound 88, trans-5-((S)-2-(4-((2-chloro-5-(3-methyl-2,5-dioxoimidazolidin-1-yl)phenoxy)methyl)cyclohexane-1-carbonyl)isoxazolidin-3-yl)nicotinonitrile]	0.047 µM	0.458 µM
Cn1ccn(-c2ccc(OC[C@H]3CC[C@H](C(=O)N4OCC[C@H]4c4cncc(C#N)c4)CC3)c(F)c2)c1=O [Compound 89, trans-5-((S)-2-(4-((2-fluoro-4-(3-methyl-2-oxo-2,3-dihydro-1H-imidazol-1-yl)phenoxy)methyl)cyclohexane-1-carbonyl)isoxazolidin-3-yl)nicotinonitrile]	0.018 µM	0.013 µM
Cc1cc(C)n(-c2ccc(OC[C@H]3CC[C@H](C(=O)N4OCC[C@H]4c4cncc(C#N)c4)CC3)c(F)c2)n1 [Compound 90, trans-5-((S)-2-(4-((4-(3,5-dimethyl-1H-pyrazol-1-yl)-2-fluorophenoxy)methyl)cyclohexane-1-carbonyl)isoxazolidin-3-yl)nicotinonitrile]	0.021 µM	0.023 µM
N#Cc1cc(F)cc([C@@H]2CCON2C(=O)[C@H]2CC[C@H](COc3cc(C#N)ccn3)CC2)c1 [Compound 91, trans-2-[[4-[(3S)-3-(3-cyano-5-fluoro-phenyl)isoxazolidine-2-carbonyl]cyclohexyl]methoxy]pyridine-4-carbonitrile]	0.014 µM	0.039 µM
CC1(C)OC(=O)N(c2ccc(F)c(OC[C@H]3CC[C@H](C(=O)N4OCC[C@H]4c4cncc(C#N)c4)CC3)c2)C1=O [Compound 92, trans-5-((S)-2-(4-((5-(5,5-dimethyl-2,4-dioxooxazolidin-3-yl)-2-fluorophenoxy)methyl)cyclohexane-1-carbonyl)isoxazolidin-3-yl)nicotinonitrile]	0.042 µM	0.229 µM
N#Cc1cc(F)cc([C@@H]2CCON2C(=O)[C@H]2CC[C@H](COc3ccnc(C#N)c3)CC2)c1 [Compound 93, trans-4-[[4-[(3S)-3-(3-cyano-5-fluoro-phenyl)isoxazolidine-2-carbonyl]cyclohexyl]methoxy]pyridine-2-carbonitrile]	0.018 µM	0.013 µM

More lines, main results first:

IC50 [1]	SMILES	IC50 (U937 cells)
0.058 µM	N#Cc1cncc([C@@H]2CCON2C(=O)[C@H]2CC[C@H](COc3cc(C#N)ccn3)CC2)c1 [Compound 94, trans-5-((S)-2-(4-(((4-cyanopyridin-2-yl)oxy)methyl)cyclohexane-1-carbonyl)isoxazolidin-3-yl)nicotinonitrile]	0.137 µM
0.015 µM	N#Cc1ccc(OC[C@H]2CC[C@H](C(=O)N3OCC[C@H]3c3cncc(C#N)c3)CC2)nc1 [Compound 95, trans-5-((S)-2-(4-(((5-cyanopyridin-2-yl)oxy)methyl)cyclohexane-1-carbonyl)isoxazolidin-3-yl)nicotinonitrile]	0.035 µM
0.047 µM	O=C([C@H]1C[C@@H](n2ncc3cc(F)ccc32)C1)N1OCC[C@H]1c1cc(F)cc(F)c1 [Compound 96, cis-[(3S)-3-(3,5-difluorophenyl)isoxazolidin-2-yl]-[3-(5-fluoroindazol-1-yl)cyclobutyl]methanone]	0.906 µM
0.038 µM	O=C([C@H]1C[C@H](n2ncc3cc(F)ccc32)C1)N1OCC[C@H]1c1cc(F)cc(F)c1 [Compound 97, trans-[(3S)-3-(3,5-difluorophenyl)isoxazolidin-2-yl]-[3-(5-fluoroindazol-1-yl)cyclobutyl]methanone]	0.151 µM
0.041 µM	N#Cc1cc(F)cc([C@@H]2CCON2C(=O)[C@H]2C[C@H](n3ncc4cc(F)ccc43)C2)c1 [Compound 98, trans-3-fluoro-5-[(3S)-2-[3-(5-fluoroindazol-1-yl)cyclobutanecarbonyl]isoxazolidin-3-yl]benzonitrile]	0.359 µM
0.07 µM	N#Cc1cncc([C@@H]2CCON2C(=O)[C@H]2CC[C@H](COc3ccc(C(N)=O)cn3)CC2)c1 [Compound 99, trans-6-[[4-[(3S)-3-(5-cyano-3-pyridyl)isoxazolidine-2-carbonyl]cyclohexyl]methoxy]pyridine-3-carboxamide]	0.209 µM
0.042 µM	NC(=O)c1cccc(OC[C@H]2CC[C@H](C(=O)N3OCC[C@H]3c3cnccn3)CC2)c1 [Compound 100, trans-3-[[4-[(3S)-3-pyrazin-2-ylisoxazolidine-2-carbonyl]cyclohexyl]methoxy]benzamide]	0.139 µM
0.04 µM	NC(=O)c1cc(OC[C@H]2CC[C@H](C(=O)N3OCC[C@H]3c3cnccn3)CC2)ccc1F [Compound 101, trans-2-fluoro-5-[[4-[(3S)-3-pyrazin-2-ylisoxazolidine-2-carbonyl]cyclohexyl]methoxy]benzamide]	0.14 µM
0.047 µM	NC(=O)c1ccc(OC[C@H]2CC[C@H](C(=O)N3OCC[C@H]3c3cnccn3)CC2)nc1 [Compound 102, trans-6-[[4-[(3S)-3-pyrazin-2-ylisoxazolidine-2-carbonyl]cyclohexyl]methoxy]pyridine-3-carboxamide]	0.257 µM
0.057 µM	N#Cc1ccc(OC[C@H]2CC[C@H](C(=O)N3OCC[C@H]3c3cnccn3)CC2)nc1 [Compound 103, trans-6-[[4-[(3S)-3-pyrazin-2-ylisoxazolidine-2-carbonyl]cyclohexyl]methoxy]pyridine-3-carbonitrile]	0.098 µM
0.024 µM	N#Cc1cc(F)cc(OC[C@H]2CC[C@H](C(=O)N3OCC[C@H]3c3cnccn3)CC2)c1 [Compound 104, trans-3-fluoro-5-[[4-[(3S)-3-pyrazin-2-ylisoxazolidine-2-carbonyl]cyclohexyl]methoxy]benzonitrile]	0.03 µM
0.036 µM	N#Cc1cc(F)cc([C@@H]2CCON2C(=O)[C@H]2C[C@H](n3ccc4cc(F)ccc43)C2)c1 [Compound 105, trans-3-fluoro-5-[(3S)-2-[3-(5-fluoroindol-1-yl)cyclobutanecarbonyl]isoxazolidin-3-yl]benzonitrile]	0.202 µM
0.077 µM	O=C([C@H]1C[C@H](n2ccc3cc(F)ccc32)C1)N1OCC[C@H]1c1cc(F)cc(F)c1 [Compound 106, trans-[(3S)-3-(3,5-difluorophenyl)isoxazolidin-2-yl]-[3-(5-fluoroindol-1-yl)cyclobutyl]methanone]	0.353 µM
0.019 µM	N#Cc1cc(F)cc([C@@H]2CCON2C(=O)[C@H]2C[C@@H](n3ccc4cc(F)ccc43)C2)c1 [Compound 107, cis-3-fluoro-5-[(3S)-2-[3-(5-fluoroindol-1-yl)cyclobutanecarbonyl]isoxazolidin-3-yl]benzonitrile]	0.214 µM
